Among the data in US10125134B2 (Mirati Therapeutics, Inc., priority 2016, dated 2018) are POC and IC50 values, retold here.

One test concerns the target KRas G12C (Homo sapiens, UniProt P01116, C118S/C51S/C80L/G12C). Description: KRas G12C Modification Assay (LCMS detection of covalent adduct). Format: binding. The settings on record: normalized percent of control; tested at 5 μM concentration for 3 hours. The essentials: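 Covalent modification was read by reverse-phase LC/MS of intact protein after compound exposure, each reaction stopped at its time point with 25 mM acetic acid. Unmodified-protein signal, taken as percent of total, was normalised to untreated protein and reported as POC.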

Test [1] relates to NCI-H358 cells (express KRas G12C), Phospho-ERK. Put plainly: Cellular inhibition of KRas G12C: Phospho-ERK in NCI-H358 cells. The format is cell-based. The settings on record: pERK(Thr202/Tyr204) normalized with GAPDH, NCI-H358 cells, 3 hours, read-out: IC50. The essentials:
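IC50 derived by 4-parameter fit of GAPDH-normalized pERK(Thr202/Tyr204) signal, as percent of DMSO control. Signal came from in-cell immunodetection with infrared secondaries after 3 h compound exposure of KRas G12C NCI-H358 cells at 0.5% DMSO.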

Structures are written as SMILES. Read-outs that look alike come from different tables or passages of the source.

`C=CC(=O)N1CCN(c2nc(OC[C@@H]3CCCN3C)nc3c2CCN(c2cccc(Cl)c2C)C3)C[C@@H]1CC#N` [Example 419, 2-((S)-1-acryloyl-4-(7-(3-chloro-2-methylphenyl)-2-(((S)-1-methylpyrrolidin-2-yl)methoxy)-5,6,7,8-tetrahydropyrido[3,4-d]pyrimidin-4-yl)piperazin-2-yl)acetonitrile]: the POC result on KRas G12C is recorded as “C (“C”>50% POC)”. Besides, in test [1] (Homo sapiens, NCI-H358, 3 h), the 50% inhibitory concentration (IC50) lay in the range of 0.1 to 1000 nM.

Turning to `C=CC(=O)N1CCN(c2nc(OC[C@@H]3CCCN3C)nc3c2CCN(c2cccc(Cl)c2Cl)C3)C[C@@H]1CC#N` [Example 420, 2-((S)-1-acryloyl-4-(7-(2,3-dichlorophenyl)-2-(((S)-1-methylpyrrolidin-2-yl)methoxy)-5,6,7,8-tetrahydropyrido[3,4-d]pyrimidin-4-yl)piperazin-2-yl)acetonitrile], on KRas G12C, the POC result is given as “C (“C”>50% POC)”. Also, the IC50 in test [1] (Homo sapiens, NCI-H358, 3 h) was 0.1 to 1000 nM.

On to `C=CC(=O)N1CCN(c2nc(OC[C@@H]3CCCN3C)nc3c2CCN(c2cccc(Cl)c2OC)C3)C[C@@H]1CC#N` [Example 421, 2-((S)-1-acryloyl-4-(7-(3-chloro-2-methoxyphenyl)-2-(((S)-1-methylpyrrolidin-2-yl)methoxy)-5,6,7,8-tetrahydropyrido[3,4-d]pyrimidin-4-yl)piperazin-2-yl)acetonitrile], for which the POC entry on KRas G12C is listed as “C (“C”>50% POC)”. In addition, the IC50 in test [1] (Homo sapiens, NCI-H358, 3 h) was 0.1 to 1000 nM.

Regarding `CN(C)C/C=C/C(=O)N1CCN(c2nc(OC[C@H]3CCCN3C)nc3c2CCN(c2cccc(Cl)c2C(F)(F)F)C3)C[C@@H]1CC#N` [Example 422, 2-((S)-4-(7-(3-chloro-2-(trifluoromethyl)phenyl)-2-(((R)-1-methylpyrrolidin-2-yl)methoxy)-5,6,7,8-tetrahydropyrido[3,4-d]pyrimidin-4-yl)-1-((E)-4-(dimethylamino)but-2-enoyl)piperazin-2-yl)acetonitrile], the POC entry on KRas G12C is recorded as “C (“C”>50% POC)”. Also, in test [1] (Homo sapiens, NCI-H358, 3 h), the concentration for half-maximal inhibition (IC50) lay within 0.1 to 1000 nM.

For the molecule `C=CC(=O)N1CCN(c2nc(OC[C@@H]3CCCN3C)nc3c2CCN(c2ccc(F)c(C)c2C)C3)C[C@@H]1CC#N` [Example 423, 2-((S)-1-acryloyl-4-(7-(4-fluoro-2,3-dimethylphenyl)-2-(((S)-1-methylpyrrolidin-2-yl)methoxy)-5,6,7,8-tetrahydropyrido[3,4-d]pyrimidin-4-yl)piperazin-2-yl)acetonitrile], the POC entry at KRas G12C is listed as “C (“C”>50% POC)”. In addition, the IC50 in test [1] (Homo sapiens, NCI-H358, 3 h) lay in the range of 0.1 to 1000 nM.

As for `C=CC(=O)N1CCN(c2nc(OC[C@@H]3CCCN3C)nc3c2CCN(c2cccc(C)c2Cl)C3)C[C@@H]1CC#N` [Example 424, 2-((S)-1-acryloyl-4-(7-(2-chloro-3-methylphenyl)-2-(((S)-1-methylpyrrolidin-2-yl)methoxy)-5,6,7,8-tetrahydropyrido[3,4-d]pyrimidin-4-yl)piperazin-2-yl)acetonitrile], on KRas G12C, the POC entry is “C (“C”>50% POC)”. The IC50 in test [1] (Homo sapiens, NCI-H358, 3 h) lay in the range of 0.1 to 1000 nM.

Turning to `C=CC(=O)N1CCN(c2nc(OC[C@@H]3C[C@@H](O)CN3C)nc3c2CCN(c2cccc(Cl)c2C(F)(F)F)C3)C[C@@H]1CC#N` [Example 425, 2-((S)-1-acryloyl-4-(7-(3-chloro-2-(trifluoromethyl)phenyl)-2-(((2S,4R)-4-hydroxy-1-methylpyrrolidin-2-yl)methoxy)-5,6,7,8-tetrahydropyrido[3,4-d]pyrimidin-4-yl)piperazin-2-yl)acetonitrile], the POC result at KRas G12C is listed as “C (“C”>50% POC)”. Further, the IC50 in test [1] (Homo sapiens, NCI-H358, 3 h) was 0.1 to 1000 nM.

Regarding `CN(C)C/C=C/C(=O)N1CCN(c2nc(OC[C@@H]3CCCN3C)nc3c2CCN(c2cccc(Cl)c2C(F)(F)F)C3)C[C@@H]1CC#N` [Example 426, 2-((S)-4-(7-(3-chloro-2-(trifluoromethyl)phenyl)-2-(((S)-1-methylpyrrolidin-2-yl)methoxy)-5,6,7,8-tetrahydropyrido[3,4-d]pyrimidin-4-yl)-1-((E)-4-(dimethylamino)but-2-enoyl)piperazin-2-yl)acetonitrile], at KRas G12C, the POC entry is “C (“C”>50% POC)”. Besides, the IC50 in test [1] (Homo sapiens, NCI-H358, 3 h) was 0.1 to 1000 nM.

Regarding `C=CC(=O)N1CCN(c2nc(OC[C@@H]3CCCN3C)nc3c2CCN(c2cccc(Cl)c2C(F)(F)F)C3)C[C@@H]1CC#N` [Example 427, 2-((S)-1-acryloyl-4-(7-(3-chloro-2-(trifluoromethyl)phenyl)-2-(((S)-1-methylpyrrolidin-2-yl)methoxy)-5,6,7,8-tetrahydropyrido[3,4-d]pyrimidin-4-yl)piperazin-2-yl)acetonitrile], on KRas G12C, the POC entry is on record as “C (“C”>50% POC)”. The IC50 in test [1] (Homo sapiens, NCI-H358, 3 h) was 0.1 to 1000 nM.

`C=CC(=O)N1CCN(c2nc(OC[C@@H]3CCCN3C)nc3c2CCN(c2cccc4ccccc24)C3)CC1COC` (stereo partly drawn) [Example 428, 1-(2-(methoxymethyl)-4-(2-(((S)-1-methylpyrrolidin-2-yl)methoxy)-7-(naphthalen-1-yl)-5,6,7,8-tetrahydropyrido[3,4-d]pyrimidin-4-yl)piperazin-1-yl)prop-2-en-1-one]: the POC entry on KRas G12C is given as “C (“C”>50% POC)”. Moreover, the half-maximal inhibitory concentration (IC50) in test [1] was more than 1000 nM.

Turning to `C=CC(=O)N1CCN(c2nc(OC[C@@H]3CCCN3C)nc3c2CCN(c2cccc4ccncc24)C3)C[C@@H]1CC#N` [Example 429, 2-((S)-1-acryloyl-4-(7-(isoquinolin-8-yl)-2-(((S)-1-methylpyrrolidin-2-yl)methoxy)-5,6,7,8-tetrahydropyrido[3,4-d]pyrimidin-4-yl)piperazin-2-yl)acetonitrile], the POC entry on KRas G12C is given as “C (“C”>50% POC)”. For the same molecule, the IC50 in test [1] (Homo sapiens, NCI-H358, 3 h) is 0.1 to 1000 nM.

For `C=CC(=O)N1CCN(c2nc(OC[C@@H]3CCCN3C)nc3c2CCN(c2nncc4ccccc24)C3)C[C@@H]1CC#N` [Example 430, 2-((S)-1-acryloyl-4-(2-(((S)-1-methylpyrrolidin-2-yl)methoxy)-7-(phthalazin-1-yl)-5,6,7,8-tetrahydropyrido[3,4-d]pyrimidin-4-yl)piperazin-2-yl)acetonitrile], the POC result on KRas G12C is recorded as “C (“C”>50% POC)”. Also, the IC50 in test [1] (Homo sapiens, NCI-H358, 3 h) is more than 1000 nM.

For `C=CC(=O)N1CCN(c2nc(OC[C@H]3CCCCN3C)nc3c2CCN(c2cccc4ccccc24)C3)C[C@@H]1CC#N` [Example 431, 2-((S)-1-acryloyl-4-(2-(((R)-1-methylpiperidin-2-yl)methoxy)-7-(naphthalen-1-yl)-5,6,7,8-tetrahydropyrido[3,4-d]pyrimidin-4-yl)piperazin-2-yl)acetonitrile], at KRas G12C, the POC result is on record as “C (“C”>50% POC)”. For the same molecule, in test [1] (Homo sapiens, NCI-H358, 3 h), the IC50 fell in the range of 0.1 to 1000 nM.

`C=CC(=O)N1CCN(c2nc(OC[C@@H]3CCCN3C)nc3c2CCN(c2cccc4ccccc24)C3)C[C@@H]1CCOC` [Example 432, 1-((S)-2-(2-methoxyethyl)-4-(2-(((S)-1-methylpyrrolidin-2-yl)methoxy)-7-(naphthalen-1-yl)-5,6,7,8-tetrahydropyrido[3,4-d]pyrimidin-4-yl)piperazin-1-yl)prop-2-en-1-one]: the POC result on KRas G12C is listed as “C (“C”>50% POC)”. The IC50 in test [1] (Homo sapiens, NCI-H358, 3 h) was more than 1000 nM.

Take `C=CC(=O)N1CCN(c2nc(OC[C@@H]3CCCN3C)nc3c2CCN(c2cccc4cccc(C(F)(F)F)c24)C3)C[C@@H]1CC#N` [Example 433, 2-((S)-1-acryloyl-4-(2-(((S)-1-methylpyrrolidin-2-yl)methoxy)-7-(8-(trifluoromethyl)naphthalen-1-yl)-5,6,7,8-tetrahydropyrido[3,4-d]pyrimidin-4-yl)piperazin-2-yl)acetonitrile]: on KRas G12C, the POC entry was “C (“C”>50% POC)”. Moreover, the half-maximal inhibitory concentration (IC50) in test [1] (Homo sapiens, NCI-H358, 3 h) fell in the range of 0.1 to 1000 nM.

Take `C=CC(=O)N1CCN(c2nc(OC[C@@H]3CCCN3C)nc3c2CCN(c2cccc4ccn(C)c24)C3)C[C@@H]1CC#N` [Example 434, 2-((S)-1-acryloyl-4-(7-(1-methyl-1H-indol-7-yl)-2-(((S)-1-methylpyrrolidin-2-yl)methoxy)-5,6,7,8-tetrahydropyrido[3,4-d]pyrimidin-4-yl)piperazin-2-yl)acetonitrile]: the POC result on KRas G12C was “C (“C”>50% POC)”. For the same molecule, the concentration for half-maximal inhibition (IC50) in test [1] (Homo sapiens, NCI-H358, 3 h) was in the range of 0.1 to 1000 nM.

Turning to `C=CC(=O)N1CCN(c2nc(OC[C@@H]3C[C@@H](F)CN3C)nc3c2CCN(c2cccc(C)c2C)C3)C[C@@H]1CC#N` [Example 435, 2-((S)-1-acryloyl-4-(7-(2,3-dimethylphenyl)-2-(((2S,4R)-4-fluoro-1-methylpyrrolidin-2-yl)methoxy)-5,6,7,8-tetrahydropyrido[3,4-d]pyrimidin-4-yl)piperazin-2-yl)acetonitrile], at KRas G12C, the POC result was “C (“C”>50% POC)”. In test [1] (Homo sapiens, NCI-H358, 3 h), the IC50 was in the range of 0.1 to 1000 nM.

Consider `Cc1cccc(N2CCc3c(nc(OC[C@@H]4C[C@@H](F)CN4C)nc3N3CCN(C(=O)/C=C/CN(C)C)[C@@H](CC#N)C3)C2)c1C` [Example 436, 2-((S)-1-((E)-4-(dimethylamino)but-2-enoyl)-4-(7-(2,3-dimethylphenyl)-2-(((2S,4R)-4-fluoro-1-methylpyrrolidin-2-yl)methoxy)-5,6,7,8-tetrahydropyrido[3,4-d]pyrimidin-4-yl)piperazin-2-yl)acetonitrile], for which the POC entry at KRas G12C is listed as “C (“C”>50% POC)”. Further, the half-inhibitory concentration (IC50) in test [1] (Homo sapiens) was in the range of 0.1 to 1000 nM.

For the molecule `C=CC(=O)N1CCN(c2nc(OC[C@@H]3CCCN3C)nc3c2CCN(c2cccc4ccccc24)C3)C(CC#N)C1` (stereo partly drawn) [Example 437, 2-(4-acryloyl-1-(2-(((S)-1-methylpyrrolidin-2-yl)methoxy)-7-(naphthalen-1-yl)-5,6,7,8-tetrahydropyrido[3,4-d]pyrimidin-4-yl)piperazin-2-yl)acetonitrile], the POC entry on KRas G12C is recorded as “C (“C”>50% POC)”. Moreover, in test [1] (Homo sapiens, NCI-H358, 3 h), the IC50 was more than 1000 nM.

By IC50 is commonly meant the concentration at which inhibition is half-maximal.
